Source: patent US20200038393A1, “APOMORPHINE PLUS BUSPIRONE COMBINATION FOR MEMORY REVIVAL” (priority 2018, published 2020)

Tests used:
[1] = Motor behavior (cage crossings) and % psychosis like effects during conditioning phase; format: in vivo; details: rats
Method: (§1) This phase started one day after pre-conditioning phase, animals were randomly assigned to six groups, each containing six animals: (i) buspirone (0 mg/kg)-saline, (ii) buspirone (0 mg/kg)-[…], (iii) buspirone (1 mg/kg)-saline, (iv) buspirone (1 mg/kg)-apomorphine, (v) buspirone (2 mg/kg)-saline and (vi) buspirone (2 mg/kg)-apomorphine injected animals. Over next 12 days (day 1 to day 12) animals went through conditioning (one session per day) in which they were confined to either the horizontal or vertical stripe compartment by raising the respective guillotine door. On day 1, 3, 5, 7, 9 and 11 animals of all groups were injected with saline (1 ml/kg) and placed immediately in the assigned ‘Non-Drug paired’ compartment for 30 min. After which the animals were kept back in their home cages. On every other day, i.e. day 2, 4, 6, 8, 10, and 12 control and test animals were injected with saline, buspirone and/or apomorphine as assigned above. Immediately after injections, animals were placed in the ‘Drug paired’ compartment for 30 min. The animals picked from the drug paired compartment were placed back in their home cages.
Motor behavior was also monitored during conditioning phase. Animals confined to a compartment were moving across the compartment. Activity scores were counted as number of cage crossings for 10 min starting 5 min post injection.

[2] = Exploratory activity in novel environment of an open field; format: in vivo; details: rats
Method: Open field consisted of a square area (76×76 cm) with walls 42 cm high. Floor of the apparatus was divided by lines into 25 squares of equal size. Experiment was conducted in a quiet room under white light. Animals were tested 24 hr post 1st and 6th apomorphine injection. Numbers of squares crossed with all four paws and latency to move from the central square were scored for 5 min.

[3] = Conditioned place preference (CPP) test for addictive/reinforcing effects; format: in vivo, rats
From the text: Apparatus for Conditioned Place Preference
A three compartment conditioned place preference (CPP) apparatus with an unbiased design was used to monitor drug-induced reinforcement. The apparatus was made up of transparent plastic Perspex. The compartments were separated by sliding guillotine doors.
The end (preference) compartments (26×26×26 cm each) provided distinct contexts, with one compartment having black horizontal stripes on side walls, the other compartment had vertical black stripes. […] The experiment was conducted in three distinct phases: pre-conditioning, conditioning and post-conditioning.
An animal introduced in the CPP apparatus from the middle compartment and guillotine doors were raised to open. The animal was allowed to explore the entire apparatus for 10 min. Time spent in each compartment was recorded.
as §1
The test was carried out on day 13, 24 hr post last conditioning session, in a drug free state. Each animal was tested only once. As in the pre-conditioning phase, the guillotine doors were removed and rat was given access to the entire apparatus for 10 min. Time spent in ‘Drug paired’ compartment was monitored.

[4] = Morris water maze test (learning acquisition, memory consolidation, retention); format: in vivo, rats
Method: The Morris water maze test was conducted after repetitive apomorphine injections and post-conditioning. Water temperature was at room temperature, 21±1° C. The platform (10 cm×10 cm) was made of clear acrylic and was hidden 2 cm below the surface of water in a fixed location. Water was made opaque by adding milk to it.
During training phase, each rat was placed into the water facing the wall of the tank and allowed 120 sec to locate and climb onto the submerged platform. The rat was allowed to stay on the platform for 10 sec. […] After the training animals were tested three times.
Each rat was tested immediately after training. Learning acquisition was determined by recording the initial latency (IL; the time taken by each rat to relocate the hidden platform).
Rats were tested for memory consolidation 60 min post training. It was determined by recording the retention latency (RL; the time taken by each rat to locate the hidden platform 1 h after training). The cut off time for each session was 2 min.
Rats were tested for memory retention 24 hr post training session. Memory retention was determined by recording the retention latency (RL; the time taken by each rat to locate the hidden platform 24 hr post training). The cut off time for each session was 2 min.

[5] = buspirone 1 mg/kg co-treated with apomorphine 1 mg/kg
[6] = buspirone 1 mg/kg co-administered with apomorphine 1 mg/kg, rats
[7] = buspirone co-injected animals (summary statement)
[8] = buspirone 1 mg/kg with apomorphine, rats

Structure (SMILES)	Motor activities post repeated administration ([1]; apomorphine 1 mg/kg, repeated administration)	Motor activities post single administration ([1]; apomorphine 1 mg/kg, single administration)	% psychosis like effects ([1]; apomorphine 1 mg/kg)	Exploratory activity in open field ([2]; apomorphine alone)	Post-conditioning values of time spent in the drug paired compartment ([3]; apomorphine 1 mg/kg, repeated, vs pre-conditioning/saline, rats)	% reinforcement ([3]; apomorphine 1 mg/kg, rats)	Memory consolidation (time taken to reach platform) ([4]; apomorphine vs saline treated animals, 60 min post training, rats)	Memory retention (time taken to reach platform) ([4]; apomorphine vs saline treated animals, 24 hr post training, rats)	Learning acquisition (time taken to reach platform) ([4]; apomorphine vs saline treated animals, tested immediately after training, rats)	Effect on % psychosis like effects produced by apomorphine [1, 5]	Effect on apomorphine-increased motor activities post repeated administration [1, 5]	Effect on apomorphine-increased exploratory activity ([2]; buspirone 1 mg/kg, after 6th apomorphine injection)	Effect on apomorphine-induced increases in post conditioning values of time spent in drug paired compartment [3, 6]	Reinforcement effects of apomorphine [3, 6]	Addiction to apomorphine [3, 7]	Effect on apomorphine-increased learning acquisition [4, 8]	Effect on apomorphine-increased memory consolidation [4, 8]	Effect on apomorphine-increased memory retention [4, 8]	Memory enhancing effects of apomorphine [4, 7]
CN1CCc2cccc3c2[C@H]1Cc1ccc(O)c(O)c1-3 [apomorphine]	increased	increase	produced	increased	much higher	increased	increase	increase	increase	–	–	–	–	–	–	–	–	–	–
O=C1CC2(CCCC2)CC(=O)N1CCCCN1CCN(c2ncccn2)CC1 [buspirone]	–	–	–	–	–	–	–	–	–	attenuated	attenuated	attenuated	significantly attenuates	did not occur	reduced	further potentiated	further potentiated	further potentiated	potentiated
